Measured values from paper PMC11480295, “Hypecotumines A-D, new isoquinoline alkaloids with potential PCSK9 inhibition activity from Hypecoum erectum L” (Natural Products and Bioprospecting, 2024).

Target: PCSK9 (Homo sapiens, UniProt Q8NBP7)
Assay: SPR (Biacore T200, PCSK9 immobilized on CM5 chip)
Type: binding

Sequence of PCSK9 (Q8NBP7 31-152): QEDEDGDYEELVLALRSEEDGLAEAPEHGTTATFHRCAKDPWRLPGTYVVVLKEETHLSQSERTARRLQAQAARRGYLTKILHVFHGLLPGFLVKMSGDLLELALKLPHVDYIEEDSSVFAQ
Sequence of PCSK9 (Q8NBP7 153-692): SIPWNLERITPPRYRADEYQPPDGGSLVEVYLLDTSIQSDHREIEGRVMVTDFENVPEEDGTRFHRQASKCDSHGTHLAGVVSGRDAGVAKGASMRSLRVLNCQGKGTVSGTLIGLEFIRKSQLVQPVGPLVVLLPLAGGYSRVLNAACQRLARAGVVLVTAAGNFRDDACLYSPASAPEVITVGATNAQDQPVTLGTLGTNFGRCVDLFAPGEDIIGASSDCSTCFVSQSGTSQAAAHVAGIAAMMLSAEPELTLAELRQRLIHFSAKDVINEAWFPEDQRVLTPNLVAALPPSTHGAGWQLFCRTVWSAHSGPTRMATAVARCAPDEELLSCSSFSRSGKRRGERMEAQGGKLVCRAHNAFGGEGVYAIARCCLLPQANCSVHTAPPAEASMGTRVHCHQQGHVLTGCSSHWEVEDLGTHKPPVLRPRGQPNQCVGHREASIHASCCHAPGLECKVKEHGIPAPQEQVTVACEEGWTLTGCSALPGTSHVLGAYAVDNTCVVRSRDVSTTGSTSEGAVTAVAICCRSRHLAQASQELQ

| Kd | Structure (SMILES) |
| --- | --- |
| 306 µM | C=C(C1=[N+](C)CCc2cc3c(cc21)OCO3)c1ccc(OC)c(O)c1C(=O)[O-] [compound 1, Hypecotumine A] |
| 248 µM | C=C(C1=[N+](C)CCc2cc(OC)c(OC)cc21)c1ccc(OC)c(O)c1C(=O)[O-] [compound 2, Hypecotumine B] |
| 95.1 µM | C=C(C1=[N+](C)CCc2cc(OC)c(OC)cc21)c1ccc2c(c1C(=O)[O-])OCO2 [compound 3, Hypecotumine C] |
| 59.9 µM | C=C(C1=[N+](C)CCc2cc3c(cc21)OCO3)c1ccc2c(c1C(=O)[O-])OCO2 [compound 4, Hypecotumine D] |
